Reference: ChEMBL document CHEMBL1158851, “Friedelane triterpenoids from Maytenus macrocarpa” (J Nat Prod, 1998)

What was measured:
Type in all cases: functional, cell-based
SK-MEL-28 = assay: Cytotoxicity against human SK-MEL-28 cells
A549 = assay: Cytotoxicity against human A549 cells
HT-29 = assay: Cytotoxicity against human HT-29 cells
P388 = assay: Cytotoxicity against mouse P388 cells

Measured: IC50

CC(=O)OC[C@]12CCC(C)(C)C[C@H]1[C@]1(C)CC[C@@]3(C)[C@@H]4C(=O)C=C(OC(C)=O)[C@H](C)[C@@]4(C)CC[C@@H]3[C@@]1(C)CC2
> 10 mg/L: all assays above

C[C@H]1C(=O)CC(=O)[C@@H]2[C@]1(C)CC[C@H]1[C@@]2(C)CC[C@@]2(C)[C@@H]3CC(C)(C)CC[C@]3(CO)CC[C@]12C
> 10 mg/L: all assays above
